Experimental findings from patent publication US12187662B2, “FOXM1 inhibitor compositions and methods of using the same” (The Board of Trustees of the University of Illinois, priority 2018, dated 2025) are described below.

This assay has as its target T1, FOXM1 protein (Homo sapiens, UniProt Q08050).
T1 construct: a terbium donor was attached to purified full length FOXM1 through a streptavidin-biotin linker
T1 sequence (Q08050 1-763): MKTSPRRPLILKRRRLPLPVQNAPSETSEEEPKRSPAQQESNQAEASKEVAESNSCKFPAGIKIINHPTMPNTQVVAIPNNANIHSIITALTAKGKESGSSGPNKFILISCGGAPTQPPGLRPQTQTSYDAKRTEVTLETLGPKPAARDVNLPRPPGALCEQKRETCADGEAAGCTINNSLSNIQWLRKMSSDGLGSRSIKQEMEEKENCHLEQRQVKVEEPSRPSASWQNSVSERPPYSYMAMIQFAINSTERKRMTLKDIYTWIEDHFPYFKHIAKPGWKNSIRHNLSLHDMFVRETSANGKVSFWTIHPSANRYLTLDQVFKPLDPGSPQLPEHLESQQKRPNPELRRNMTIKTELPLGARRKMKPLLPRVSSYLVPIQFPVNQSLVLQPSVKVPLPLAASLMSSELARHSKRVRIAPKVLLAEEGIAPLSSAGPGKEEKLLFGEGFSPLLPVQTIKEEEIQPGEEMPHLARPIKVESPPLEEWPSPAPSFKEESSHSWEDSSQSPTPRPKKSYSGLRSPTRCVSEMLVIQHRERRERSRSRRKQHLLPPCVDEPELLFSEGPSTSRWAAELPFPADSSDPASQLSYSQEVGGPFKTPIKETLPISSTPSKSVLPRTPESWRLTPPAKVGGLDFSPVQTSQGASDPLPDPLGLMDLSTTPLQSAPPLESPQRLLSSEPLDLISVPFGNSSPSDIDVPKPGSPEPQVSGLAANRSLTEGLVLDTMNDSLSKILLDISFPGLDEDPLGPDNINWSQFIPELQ
The assay can be described thus: Direct binding of Fl-NB-72 to FOXM1 by tr-FRET. The settings on record: direct tr-FRET titration. The protocol: Direct binding experiments for determination of Kd for Fl-NB-72. […] The Biotin-FOXM1 was diluted to a concentration of 3×(5 nM+1.25 nM SaTb). 5 μL of each of these were mixed on a black Molecular Devices microtiter plate with 5 μL of FRET buffer, so that each component was diluted 3×. Each point was prepared in duplicate, mixed, and incubated for 1 h at room temperature, in the dark. tr-FRET was measured on a Victor X5 microtiter plate reader with settings as given above.

In general, Kd refers to the concentration at which binding is half-saturated. In turn, `O=C(NCCCCCCOc1ccc(C(c2ccc(OCCCCCCN3CCCCCC3)cc2)=C2C3C[C@H]4C[C@@H](C3)C[C@H]2C4)cc1)c1ccc(-c2c3ccc(=O)cc-3oc3cc(O)ccc23)c(C(=O)O)c1` [Fl-NB-72, 5-((6-(4-((L′)-((5r,7r)-adamantan-2-ylidene)(4-((6-(azepan-1-yl)hexyl)oxy)phenyl)methyl)phenoxy)hexyl)carbamoyl)-2-(6-hydroxy-3-oxo-3H-xanthen-9-yl)benzoic acid] returned a dissociation constant Kd of 23 nM.
